Test results: patent US20050249674A1, “Aerosol composition” (University College Cardiff Consultants Limited, priority 1998, published 2005)

Assay: visual assessment of suspension: ease of dispersion on hand held shaking, extent of aggregation, suspension quality
Assay type: physicochemical
Conditions: in HFA-134a or HFA-227
Experimental: Each suspension was assessed visually for its ease of dispersion on hand held shaking, its extent of aggregation and the quality of the suspension.
Ease of dispersion was scored on a scale of good (g), medium (m) and poor (p).
The extent of aggregation was scored on a scale of low, medium and high. Additionally the type of aggregation, if present, was recorded.
The quality of the suspension was scored on a scale of poor (p), poor-fair (p/f), fair (f), fair-good (f/g) and good (g).
The suspension properties measured by visual inspection were ease of dispersion, extent of aggregation and suspension quality and were scored as for Examples A to Q.
The resulting suspensions were assessed visually for ease of dispersion, suspension quality and extent of aggregation and scored as above, as set out under Examples A to R. The results are given in Table IV below.
The suspensions so formed were assessed visually for ease of dispersion and suspension quality and each assessment was scored on a scale of poor (p), poor-fair (p/f), fair (f), fair-good (f/g), good (g).
The extent of aggregation of each suspension was also assessed visually and in each example was rated as low.

Row | tendency to cream or sediment in the propellant | Compound
1 | tendency to sediment | OC[C@H]1OC(O)[C@H](O)[C@@H](O)[C@@H]1O (stereo partly drawn) [Glucose, d-glucose anhydrous]
2 | tendency to cream | CC(C)C[C@H](N)C(=O)O [Leucine, L-leucine]
